Test results from the supplement of paper PMC10307832.

Assays:
Assay in all cases: relative viability (nuclei count vs DMSO), 5 days (fraction); higher = more cells survive
[1] = compound: O=C(C[C@H]1NCCC[C@@H]1O)Cn1cnc2cc(Br)c(Cl)cc2c1=O (racemic) [Halofuginone] + COc1cccc2cc(-c3nc([C@H]4CC[C@H](C(=O)O)CC4)n4ncnc(N)c34)[nH]c12 [OSI-027] (partner 0.5 µM)
In short: (§1)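 Each reported value is a median over duplicate plates. It expresses relative viability: treated-well nuclei count divided by vehicle-well nuclei count. Lung cancer cell lines in 1536-well plates were dosed by pin tool a day after seeding, alone with one drug or with a fixed anchor-drug dose plus five library-drug doses (not always all listed) in √10 steps, and nuclei were counted after 5 days.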

[2] = compound: COc1cc2c(Oc3ccc4[nH]c(C)cc4c3F)ncnc2cc1OCCCN1CCCC1 [Cediranib] + CC1(C)CCC(c2ccc(Cl)cc2)=C(CN2CCN(c3ccc(C(=O)NS(=O)(=O)c4ccc(N[C@H](CCN5CCOCC5)CSc5ccccc5)c(S(=O)(=O)C(F)(F)F)c4)cc3)CC2)C1 [Navitoclax] (partner 0.5 µM)
In short: as §1

[3] = compound: COc1cc2c(Oc3ccc4[nH]c(C)cc4c3F)ncnc2cc1OCCCN1CCCC1 [Cediranib] + C[C@]1(O)C[C@@H](c2nc(-c3ccc4ccc(-c5ccccc5)nc4c3)c3c(N)nccn32)C1 [Linsitinib] (partner 1 µM)
In short: as §1

[4] = compound: Nc1ncn([C@H]2C[C@H](O)[C@@H](CO)O2)c(=O)n1 [Decitabine] + O=C(c1cc(Cc2n[nH]c(=O)c3ccccc23)ccc1F)N1CCN(C(=O)C2CC2)CC1 [Olaparib] (partner 8 µM)
In short: as §1

Cell Line	relative viability ([1]; first compound 0.001 µM)	relative viability ([1]; first compound 0.003162 µM)	relative viability ([1]; first compound 0.01 µM)	relative viability ([1]; first compound 0.03162 µM)	relative viability ([1]; first compound 0.1 µM)	relative viability ([2]; first compound 0.04 µM)	relative viability ([2]; first compound 0.4 µM)	relative viability ([2]; first compound 1.265 µM)	relative viability ([2]; first compound 4 µM)	relative viability ([3]; first compound 0.04 µM)	relative viability ([3]; first compound 0.4 µM)	relative viability ([3]; first compound 1.265 µM)	relative viability ([3]; first compound 4 µM)	relative viability ([4]; first compound 0.04 µM)	relative viability ([4]; first compound 0.1265 µM)	relative viability ([4]; first compound 0.4 µM)	relative viability ([4]; first compound 1.265 µM)	relative viability ([4]; first compound 4 µM)	relative viability ([2]; first compound 0.1265 µM)	relative viability ([3]; first compound 0.1265 µM)
NCI-H1623	0.536	0.455	0.436	0.517	0.423															
HCC-827	0.746	0.783	0.76	0.902	0.742	1.02	1.02	1.04	1.1	1.02	0.945	0.949	0.991	0.146	0.279	0.218	0.182	0.205		
NCI-H322M	0.596	0.652	0.488	0.49	0.346	1.22	1.08	1.21	1.14	1.01	0.879	0.856	1.09	0.641	0.684	0.646	0.47	0.383	1.21	0.997
ChaGo-K-1	0.537	0.605	0.528	0.537	0.501	1.02	0.952	1.23	0.83					0.28	0.28	0.222	0.198	0.242		
BEN	0.341	0.287	0.299	0.288	0.247	0.0686	0.0683	0.0702	0.0649	1.16	0.82	0.9	0.647	0.666	0.595	0.457	0.43	0.409	0.0663	0.799
NCI-H2347	0.577	0.336	0.454	0.425	0.344	0.886	0.748	0.831	0.891	0.979	0.919	1	0.903	0.528	0.578	0.469	0.464	0.424	0.754	0.86
LOU-NH91	0.733	0.732	0.748	0.741	0.692	0.673	0.665	0.706	0.544	0.905	0.915	0.969	0.759	0.667	0.742	0.649	0.577	0.601	0.635	1.2
NCI-H2228	0.741	0.647	0.465	0.371	0.198	0.791	0.883	1.22	1.1	0.873	0.8	0.536	1.03	0.194	0.235	0.104	0.145	0.157	0.968	0.955
NCI-H2342	0.565	0.622	0.574	0.7	0.618									0.539	0.368	0.433	0.351	0.249		
HCC-366	1.33	1.02	0.857	0.892	0.567	1.07	1.11	1.07	1.07	0.65	0.582	0.542	1.05	0.11	0.0915	0.066	0.0346	0.0247	0.983	0.634
NCI-H2405	0.71	0.656	0.638	0.619	0.577	0.766	0.79	1.11	0.838	1	0.838	1.06	0.836	0.613	0.467	0.374	0.313	0.312	1.01	1.25
Calu-6						0.876	0.898	0.788	0.819	0.881	0.938	0.854	1.06	0.234	0.285	0.182	0.166	0.14	0.86	0.971
201T	0.755	0.775	0.713	0.474	0.256	1.25	1.15	1.2	1.21	1.11	0.941	1.01	0.974	0.555	0.494	0.406		0.781	1.28	1.18
CAL-12T	0.872	0.771	0.707	0.807	0.414	1.33	1.37	1.27	1.34	0.95	0.691	0.865	0.714	0.438	0.412	0.257	0.266	0.227	1.33	0.864
HCC-44	0.505	0.613	0.444	0.379	0.202	0.972	1.01	0.965	1.11	0.7	0.636	0.654	0.729	0.808	0.738	0.627	0.739	0.757		
